Values after ≈ are worked out from the molar mass of the structure shown.

One assay addresses T1, topoisomerase IIα (Homo sapiens, UniProt P11388).
T1 construct: purchased TopoGen
Description: Topoisomerase IIα drug detection kit, kDNA agarose gel. It counts as biochemical. The settings on record: normalized with 1% DMSO. The protocol:
The Topoisomerase IIα drug detection kit (TopoGen, Buena Vista, VA, USA) was used. Reactions were made with 4 μL of reaction buffer (50 mM Tris-HCl, 5 mM ATP, 150 mM NaCl, 30 μg/mL bovine serum albumin, 0.5 mM dithiothreitol, 10 mM MgCl2), 1 μL of the enzyme topoisomerase IIα ([…], 2 units), 1 μL of the kDNA substrate (approximately 200 ng) and 1 μL of the compounds with activity at 10 μM, so that the final volume was 20 μL completing with nuclease-free water. These reactions were incubated at 37 °C for 30 min, and the reaction was terminated with 4 μL of stop buffer.

Assay [1] deals with A549 lung cancer cell line. Description: MTT cell proliferation assay, A549. It counts as cell-based, human. The settings on record: lung cancer cells; for IC50: Homo sapiens, A549, 48 h treatment. From the text: (§1) All materials and reagents for cell culture were purchased from Sigma Aldrich (Saint Louis, MS, USA). For the assay, two human cancer cell lines and two cell lines, one human and one mouse as controls, were used. The human breast cancer cell line (MDA-MB-231 ATCC®) and lung cancer cell line (A549 ATCC®) were maintained in Dulbecco’s modified Eagle medium (DMEM) supplemented with 10% of fetal bovine serum and 1% of penicillin. The primary human dermal fibroblasts from adult skin (HDFa ATCC®) and the cell line from mouse adipose tissue (L929 ATCC®) were maintained in Roswell Park Memorial Institute medium (RPMI) supplemented with 10% of fetal bovine serum and 1% of penicillin, all cells in incubator with 5% CO2 at 37 °C [25].
(§2) Antiproliferative studies were carried out using the modified MTT assay based on a previously published method. In this case, 100 μL of cell suspension from the tumor lines was seeded in 96-well plates with a cellular density of 20,000 cells/well and incubated with 5% CO2 at 37 °C to allow cell adhesion. After 48 h, the supernatant was discarded and the cells were treated with different concentrations (5, 10, 25, 50, and 100 μg/mL) of the natural compounds 1 and 2 and the semisynthetic derivatives 3–5 dissolved in an unsupplemented medium. The plate was incubated for 48 h with 5% CO2 at 37 °C. Subsequently, 100 μL of an MTT solution at 0.5 mg/mL was added to each well and placed back in the incubator for 2 h. The supernatant was removed and 100 μL of DMSO was added to incubate for 15 min. Finally, absorbance (OD) at 595 nm was measured on an iMark ™ Microplate reader (Bio-Rad, Hercules, CA, USA).
(§3) The cytotoxic activity was quantified by calculating the mean inhibitory concentration (IC50), normalizing the absorbance data and converting them into percentages of inhibition. With a nonlinear 4PL regression, the IC50 was found, as developed by Sebaugh, using the PrimsGraph Pad® program (GraphPad Software Inc., San Diego, CA, USA).
A general note: Tetrazolium dyes change colour on reduction, which living cells bring about.

In a further assay the target is T2, p38α-kinase (Homo sapiens, UniProt Q16539).
T2 construct: purchased Promega Corporation
In words: p38α Kinase Enzyme System, ADP-Glo luminescence. It counts as biochemical. From the text:
Possibly due to a higher concentration of compounds that generate interaction with a site of the enzymes different from the active site, which leads to a lower inhibition, as explained by Abdel-Magid, where it is stated that most of the drugs are designed to join the primary active sites of the enzymes, known as orthostatic sites. However, these can also have secondary sites or allosteric, in which, at the time of the inhibitors join them, a secondary effect is generated causing an increase in enzymatic activity. Therefore, it was not possible to obtain an IC50 value and the results were analyzed by the area under the curve (AUC). This performs the integral of the function of the logarithm of the concentration vs. luminescence for each of the compounds, and in this way to be able to compare the activity between them.
(§4) For the assay of the enzymatic activity, the p38α Kinase Enzyme System (Promega Corporation, Madison, WI, USA) and Src Kinase Enzyme System (Promega Corporation, Madison, WI, USA) kits were used. In this case 25 μL of reaction were added to each well (in the final concentrations shown in Table 4), where 10 μL were from substrate solution (0.2 mg/mL substrate, ATP and 1 × buffer kinase (Promega Corporation)), 10 μL of kinase solution (kinase (Promega Corporation), 1 × buffer kinase (Promega Corporation) and nuclease-free water) and 5 μL of the compounds initially prepared at 1 mM in DMSO and performing serial dilutions in Buffer Kinase (Promega Corporation) from 10 μM to 0.625 μM according to protocol for the kits (Promega Corporation, 2018). The plates were left at room temperature for 1 h, then 25 μL of ADP-Glo ™ Reagent (Promega Corporation) were added, these were placed at room temperature again for 40 min. Finally, 50 μL of the kinase detection reagent will be added and left at room temperature for 45 min [28]. The measurement was made by means of luminescence in an integration time of 0.5 to 1 s in the GENios Plus microplate reader (Grödig/Salzburg, Austria).

The subject of assay [2] is L929 fibroblast cell line. In words: MTT cell proliferation assay, L929. To be noted: 48 h treatment, healthy mouse fibroblasts. It counts as cell-based.
Excerpt: as §1, §2, §3

Another assay has as its target T3, Src-kinase (Homo sapiens, UniProt P12931).
T3 construct: purchased Promega Corporation
Description: Src Kinase Enzyme System, ADP-Glo luminescence. It counts as biochemical. To be noted: for Src-kinase area under the curve (AUC): log concentration vs. luminescence, 10 to 0.625 μM, smaller area = more inhibition.
Excerpt: On the other hand, there are several enzymes that may be involved in several types of cancer, such as non-receptor tyrosine kinase (c-Src) which belongs to the family of kinases and is expressed in all cell types, but its activity is related to advanced malignancies and an unfavorable prognoses of human cancers, so it is considered a molecular target for studies of potential inhibitors. As with the previous enzyme, similar behavior was obtained, so the area under the curve of each of the compounds was also calculated in order to know which of them generate greater inhibition.
as §4
For orientation: ADP-Glo turns the ADP formed in a reaction into a luminescent signal.

Assay [3] relates to HDFa dermal fibroblast cell line. Description: MTT cell proliferation assay, HDFa. It counts as cell-based. The settings on record: 48 h treatment, healthy human dermal fibroblasts.
Excerpt: as §1, §2, §3

The subject of assay [4] is MDA-MB-231 breast cancer cell line. In words: MTT cell proliferation assay, MDA-MB-231. It counts as cell-based. To be noted: Homo sapiens, 48 h treatment, breast cancer cells.
Excerpt: as §1, §2, §3

A further assay concerns skin cancer cells. The arrangement: method as in PMID 30858059, PMID 28292936. To be noted: cited from earlier work.
Assay [5] has as its system lung cancer cells line (A549). Details: method as in PMID 28635645. The settings on record: cited from earlier work.

T2 sequence (Q16539 whole entry): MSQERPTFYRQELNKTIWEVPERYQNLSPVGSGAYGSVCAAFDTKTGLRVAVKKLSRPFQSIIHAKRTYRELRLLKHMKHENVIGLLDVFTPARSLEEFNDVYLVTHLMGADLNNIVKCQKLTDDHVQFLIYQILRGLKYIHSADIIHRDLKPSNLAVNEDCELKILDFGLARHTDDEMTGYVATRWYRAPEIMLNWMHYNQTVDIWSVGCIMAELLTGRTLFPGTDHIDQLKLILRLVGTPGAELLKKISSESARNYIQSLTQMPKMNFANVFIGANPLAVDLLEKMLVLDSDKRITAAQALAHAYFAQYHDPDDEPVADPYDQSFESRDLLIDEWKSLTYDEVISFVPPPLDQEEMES
T3 sequence (P12931 whole entry): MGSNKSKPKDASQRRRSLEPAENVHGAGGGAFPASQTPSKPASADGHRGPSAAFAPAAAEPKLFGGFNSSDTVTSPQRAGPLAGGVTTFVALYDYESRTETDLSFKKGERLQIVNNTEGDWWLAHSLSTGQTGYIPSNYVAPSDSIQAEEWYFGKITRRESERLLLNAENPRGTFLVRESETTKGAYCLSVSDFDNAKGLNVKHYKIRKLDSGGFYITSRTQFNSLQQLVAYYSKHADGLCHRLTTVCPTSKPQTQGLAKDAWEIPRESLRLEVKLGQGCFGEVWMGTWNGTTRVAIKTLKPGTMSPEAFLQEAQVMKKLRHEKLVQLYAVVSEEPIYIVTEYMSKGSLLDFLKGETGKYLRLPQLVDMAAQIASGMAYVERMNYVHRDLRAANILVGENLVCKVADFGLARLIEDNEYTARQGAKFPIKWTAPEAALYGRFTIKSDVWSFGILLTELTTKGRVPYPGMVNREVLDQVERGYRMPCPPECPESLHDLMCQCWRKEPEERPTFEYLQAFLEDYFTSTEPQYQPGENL
T1 sequence (P11388 whole entry): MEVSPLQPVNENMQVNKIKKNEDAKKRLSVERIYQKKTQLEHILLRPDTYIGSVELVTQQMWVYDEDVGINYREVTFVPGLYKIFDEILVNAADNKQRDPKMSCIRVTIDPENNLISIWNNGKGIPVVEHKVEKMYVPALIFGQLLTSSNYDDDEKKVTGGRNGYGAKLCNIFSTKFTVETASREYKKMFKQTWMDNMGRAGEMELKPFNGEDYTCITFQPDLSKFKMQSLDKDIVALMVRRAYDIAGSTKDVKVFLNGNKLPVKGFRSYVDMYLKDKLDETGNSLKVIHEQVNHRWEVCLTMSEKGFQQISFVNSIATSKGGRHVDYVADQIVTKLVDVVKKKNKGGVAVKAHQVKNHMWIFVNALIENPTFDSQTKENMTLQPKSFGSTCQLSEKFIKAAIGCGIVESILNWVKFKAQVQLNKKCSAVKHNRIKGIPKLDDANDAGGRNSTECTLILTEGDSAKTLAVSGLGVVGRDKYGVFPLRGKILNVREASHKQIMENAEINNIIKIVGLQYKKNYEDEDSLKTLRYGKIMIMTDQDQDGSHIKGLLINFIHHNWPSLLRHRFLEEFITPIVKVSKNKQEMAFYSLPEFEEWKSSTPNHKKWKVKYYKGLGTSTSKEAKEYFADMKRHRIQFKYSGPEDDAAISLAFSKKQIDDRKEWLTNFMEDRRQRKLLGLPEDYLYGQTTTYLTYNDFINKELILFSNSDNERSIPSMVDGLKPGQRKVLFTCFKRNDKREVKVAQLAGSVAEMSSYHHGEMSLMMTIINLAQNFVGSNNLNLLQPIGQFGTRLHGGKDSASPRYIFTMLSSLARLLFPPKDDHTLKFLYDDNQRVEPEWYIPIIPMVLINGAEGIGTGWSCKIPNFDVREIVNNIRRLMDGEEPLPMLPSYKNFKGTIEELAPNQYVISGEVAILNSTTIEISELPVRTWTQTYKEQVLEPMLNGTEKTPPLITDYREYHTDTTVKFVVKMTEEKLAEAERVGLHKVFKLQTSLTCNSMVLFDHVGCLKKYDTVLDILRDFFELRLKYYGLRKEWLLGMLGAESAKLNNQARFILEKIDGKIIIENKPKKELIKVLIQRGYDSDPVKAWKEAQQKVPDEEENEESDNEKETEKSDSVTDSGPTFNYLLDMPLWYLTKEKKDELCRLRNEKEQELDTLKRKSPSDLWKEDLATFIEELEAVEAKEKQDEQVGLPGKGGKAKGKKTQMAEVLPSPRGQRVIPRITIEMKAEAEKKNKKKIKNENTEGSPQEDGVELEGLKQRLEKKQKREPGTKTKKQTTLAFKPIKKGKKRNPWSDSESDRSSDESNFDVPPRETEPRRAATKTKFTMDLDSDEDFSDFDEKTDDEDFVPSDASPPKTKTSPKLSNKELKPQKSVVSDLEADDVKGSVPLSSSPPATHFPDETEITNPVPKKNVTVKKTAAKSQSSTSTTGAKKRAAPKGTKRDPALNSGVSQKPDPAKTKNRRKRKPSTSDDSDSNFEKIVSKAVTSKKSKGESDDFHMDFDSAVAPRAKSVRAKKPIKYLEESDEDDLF

For orientation: inhibition means the percentage by which the read-out fell short of the control. A word on the IC50: it is the concentration needed to halve the response being measured. As to `CCCCCC(/C=C/[C@H]1C=CC(=O)[C@@H]1C/C=C\CCCC(=O)OC)OC(C)=O` (stereo partly shown) [Compound 1, (5Z,13E)-15-acetyl-oxy-9-oxo-prosta-5,10,13-trien-1-oic acid methyl ester], at 10 µM the inhibition at topoisomerase IIα was 45%. For the same compound, the “IC50 A549” value in [1] (48 h treatment) was “ineffective”. Also, the concentration for half-maximal inhibition (IC50) was more than 100 µg/mL in assay [1], 71.7 µg/mL (≈ 184 µM) in assay [2], 28.3 µg/mL (≈ 72.4 µM) in assay [3] and 27.5 µg/mL (≈ 70.5 µM) in assay [4]. The inhibition at 2.5 µM was 42% against p38α-kinase and less than 40% against Src-kinase. Further, the “Src-kinase area under the curve (AUC)” value at Src-kinase was “above 1500”.

Compound `CCCCCC(/C=C/[C@H]1CC[C@H](O)[C@@H]1C/C=C\CCCC(=O)OC)OC(C)=O` (stereo partly drawn) [Compound 4, (5Z,9α,13E)-15-acetyloxy-9-hydroxy-prosta-5,13-dien-1-oic acid methyl ester] had an inhibition at 10 µM against topoisomerase IIα of 26%. Besides, the IC50 in assay [1] is more than 100 µg/mL; in assay [2] it was 54.3 µg/mL (≈ 138 µM); in [3], 50.7 µg/mL (≈ 128 µM); in assay [4], more than 100 µg/mL. The values for the inhibition at 2.5 µM on p38α-kinase and against Src-kinase were 37% and less than 40%, respectively.

With `CCCCCC(/C=C/[C@H]1CC[C@@H](O)[C@@H]1C/C=C\CCCC(=O)OC)OC(C)=O` (stereo partly drawn) [Compound 3, (5Z,9β,13E)-15-acetyloxy-9-hydroxy-prosta-5,13-dien-1-oic acid methyl ester], the inhibition at 10 µM at topoisomerase IIα worked out at 43%. Besides, the IC50 in [1], in assay [2], in [3] and in assay [4] was more than 100 µg/mL throughout. The inhibition at 2.5 µM is 37% against p38α-kinase and less than 40% on Src-kinase.

Consider `CCCCC[C@H](O)/C=C/[C@H]1C(=O)C[C@H](O)[C@@H]1C/C=C\CCCC(=O)NCCO` [PGD2-EA], for which, in the assay with skin cancer cells, the IC50 was 18 µM.

On to `CCCCCC(O)/C=C/[C@H]1C=CC(=O)[C@@H]1C/C=C\CCCC(=O)O` (stereo partly shown) [Compound 2, (5Z,13E) -15-hydroxy-9-oxoprosta 5,10,13 trien-1-oic acid], for which the inhibition at 10 µM at topoisomerase IIα is 64%. Also, the IC50 in assay [1] was 25.2 µg/mL (≈ 75.3 µM); in assay [2] it was 40.4 µg/mL (≈ 121 µM); in [3] it was 17.9 µg/mL (≈ 53.4 µM); in assay [4] it was 16.5 µg/mL (≈ 49.2 µM). Moreover, the inhibition at 2.5 µM amounted to 49% against p38α-kinase and 59% at Src-kinase. Besides, the “Src-kinase area under the curve (AUC)” value at Src-kinase stood at 921.

In the case of `CCCCC[C@@H](O)/C=C/[C@H]1CCC(O)[C@@H]1C/C=C\CCCCO` (stereo partly shown) [Compound 5, (5Z,13E)-1,9,15-triol-prosta-5,13-diene], at topoisomerase IIα, testing at 10 µM gave an inhibition of 24%. In addition, the half-inhibitory concentration (IC50) in [1], in assay [2], in assay [3] and in assay [4] was more than 100 µg/mL throughout. Also, the inhibition at 2.5 µM at p38α-kinase amounted to 39%; against Src-kinase it was 46%. The compound further showed a p38α-kinase % inhibition on p38α-kinase (at 2.5 μM) of 36%.

For the compound `CCCCC/C=C/C=C1/C(=O)C=CC1C/C=C\CCCC(=O)NCCO` (stereo not shown) [15-deoxy-Δ^12,14-PGJ2-EA], in the assay on skin cancer cells, the IC50 was 20 µM.

In the case of sardysterol, in assay [5], the half-inhibitory concentration (IC50) is 27.3 µM.

`COc1cccc2c1C(=O)c1c(O)c3c(c(O)c1C2=O)C[C@@](O)(C(=O)CO)C[C@@H]3O[C@H]1C[C@H](N)[C@H](O)[C@H](C)O1` [doxorubicin, reference compound] gave an inhibition at 10 µM on topoisomerase IIα of 88%.
